Test results from patent publication US12180485B2, “Repressible control of gene expression” (TRUSTEES OF BOSTON UNIVERSITY, priority 2020, dated 2024).
Where two headings read alike, the source gives them in different places.

Columns and labels:
[1] = system: mammalian systems; conditions: cited from earlier work
[2] = system: CID domains; conditions: cited from earlier work; for Reversibility: reversibility of the ligand-induced dimerization / action; for Kd: ligand / CID dimerization domain, read-out: Dissociation constant (Kd)
[3] = system: Cre reporter; assay: Caffeine inducible split Cre (CaffVHH), Cre reporter in transfected cells; type: cell-based
[4] = system: mCherry; assay: Drug inhibited knockdown system (Cas13 OFF switch, dNS3/ANR domains), mCherry expression; type: cell-based; conditions: split Cas13d linked to dNS3 and ANR domains
[5] = molecular target: asunaprevir-bound NS3a (Hepatitis C virus genotype 1a, UniProt P27958, T1100M/T1173A); conditions: cited from earlier work
[6] = molecular target: NS3a/danoprevir complex (Hepatitis C virus genotype 1a, UniProt P27958, T1100M/T1173A); conditions: cited from earlier work
[7] = molecular target: grazoprevir/NS3a complex (Hepatitis C virus genotype 1a, UniProt P27958, T1100M/T1173A); conditions: cited from earlier work
[8] = system: mCherry; assay: mCherry knockdown by inducible split RfxCas13d (ON switch) in transfected HEK 293 FT cells, flow cytometry; type: cell-based; conditions: for knockdown with assistance of gRNA: mCherry
[9] = toxicity in mammalian systems at working concentration

CC/C(=C(\c1ccccc1)c1ccc(OCCN(C)C)cc1)c1ccccc1 [Tamoxifen]
Toxicity* [1, 9]: no | Reversibility [2]: hardly

CO[C@H]1C[C@@H]2CC[C@@H](C)[C@@](O)(O2)C(=O)C(=O)N2CCCC[C@H]2C(=O)O[C@H]([C@H](C)C[C@@H]2CC[C@@H](O)[C@H](OC)C2)CC(=O)[C@H](C)/C=C(\C)[C@@H](O)[C@@H](OC)C(=O)[C@H](C)C[C@H](C)/C=C/C=C/C=C/1C [Rapamycin]
Toxicity* [1, 9]: no

Cn1c(=O)c2c(ncn2C)n(C)c1=O [caffeine, reference compound]
Toxicity* [1, 9]: no | Kd [2]: 1200 nM | Reversibility [2]: yes | caffeine concentration able to turn on Cre activity and generate reporter expression ([3]; 48 hours): 0.1 µM | caffeine concentration not sufficient to induce recombination ([3]; FIG. 1C): 0.01 µM | caffeine concentration over which recombination efficiency did not increase significantly ([3]; FIG. 1C): over 50 uM

C=C[C@@H]1C[C@]1(NC(=O)[C@@H]1C[C@@H]2CN1C(=O)[C@H](C(C)(C)C)NC(=O)O[C@@H]1C[C@H]1CCCCCc1nc3ccc(OC)cc3nc1O2)C(=O)NS(=O)(=O)C1CC1.O [Grazoprevir, reference compound]
Toxicity* [1, 9]: no | Kd [2]: 0.02 nM | Reversibility [2]: yes | inhibition of constitutive knockdown activity of the OFF switch [4]: able to inhibit the constitutive knockdown activity

CC1=CC(=O)CC(C)(C)[C@@]1(O)/C=C/C(C)=C\C(=O)O [Abscisic acid]
Toxicity* [1]: no | Kd [2]: 20 nM | Reversibility [2]: yes

Gibberellin
Toxicity* [1, 9]: yes | Kd [2]: 1000 nM | Reversibility [2]: yes

CC(C)(C)OC(=O)N[C@H]1CCCCC/C=C\[C@@H]2C[C@@]2(C(=O)NS(=O)(=O)C2CC2)NC(=O)[C@@H]2C[C@@H](OC(=O)N3Cc4cccc(F)c4C3)CN2C1=O [Danoprevir]
inhibition of constitutive knockdown activity of the OFF switch [4]: able to inhibit the constitutive knockdown activity

B1: D5: reader domain, SEQ ID NO: 166 (protein)
chain: SSDEEEARELIERAKEAAERAQEAAERTGDPRVRELARELKRLAQEAAEEVKRDPSSSDVNEALKLIVEAIEAAVDALEAAERTGDPEVRELARELVRLAVEAAEEVQRNPSSSDVNEALLTIVIAIEAAVNALEAAERTGDPEVRELARELVRLAVEAAEEVQRNPSSREVNIALWKIVLAIQEAVESLREAEESGDPEKREKARERVREAVERAEEVQRDPSGWLNH
binding of NS3 in the presence of asunaprevir [5]: some binding | binding of NS3 in the presence of danoprevir [6]: moderate binding | binding of NS3 in the presence of grazoprevir [7]: moderate binding

B2: DNCR1: danoprevir/NS3 complex reader, SEQ ID NO: 167 (protein)
chain: SSDEEEARELIERAKEAAERAQEAAERTGDPRVRELARELKRLAQEAAEEVKRDPSSSDVNEALKLIVEAIEAAVDALEAAERTGDPEVRELARELVRLAVEAAEEVQRNPSSSDVNEALLSIVIAIEAAVHALEAAERTGDPEVRELARELVRLAVEAAEEVQRNPSSREVEHALMKIVLAIYEAEESLREAEESGDPEKREKARERVREAVERAEEVQRDPSGWLNH
binding of NS3 in the presence of asunaprevir [5]: minimal binding | binding of NS3 in the presence of danoprevir [6]: high binding | binding of NS3 in the presence of grazoprevir [7]: minimal binding

B3: single CaffVHH: single CaffVHH version of split Cre 270/271 (protein)
VHH: EVQLQASGGGLVQAGGSLRLSCTASGRTGTIYSMAWFRQAPGKEREFLATVGWSSGITYYMDSVKGRFTISRDNAKNSAYLQMNSLKPEDTAVYYCTATRAYSVGYDYWGQGTQVTVSH
caffeine concentration achieving maximum recombination efficiency ([3]; dose response, split Cre 270/271): 500 µM

B4: G3: reader domain, SEQ ID NO: 168 (protein)
chain: DIEKLCKKAEEEAKEAQEKADELRQRHPDSQAAEDAEDLANEAEAAVLAACSLAQEHPNADIAKLCIKAASEAAEAASKAAELAQRHPDSQAARDAIKLASQAARAVILAIMLAAENPNADIAKLCIKAASEAAEAASKAAELAQRHPDSQAARDAIKLASQAAEAVERAIWLAAENPNADIAKKCIKAASEAAEEASKAAEEAQRHPDSQKARDEIKEASQKAEEVKERCKS
binding of NS3 in the presence of asunaprevir [5]: some binding | binding of NS3 in the presence of danoprevir [6]: no binding | binding of NS3 in the presence of grazoprevir [7]: moderate binding

B5: 507/508: RfxCas13d split pair at 507/508 fused to CID or dNS3/ANR domains (protein)
chain 1: IEKKKSFAKGMGVKSTLVSGSKVYMTTFAEGSDARLEKIVEGDSIRSVNEGEAFSAEMADKNAGYKIGNAKFSHPKGYAVVANNPLYTGPVQQDMLGLKETLEKRYFGESADGNDNICIQVIHNILDIEKILAEYITNAAYAVNNISGLDKDIIGFGKFSTVYTYDEFKDPEHHRAAFNNNDKLINAIKAQYDEFDNFLDNPRLGYFGQAFFSKEGRNYIINYGNECYDILALLSGLRHWVVHNNEEESRISRTWLYNLDKNLDNEYISTLNYLYDRITNELTNSFSKNSAANVNYIAETLGINPAEFAEQYFRFSIMKEQKNLGFNITKLREVMLDRKDMSEIRKNHKVFDSIRTKVYTMMDFVIYRYYIEEDAKVAAANKSLPDNEKSLSEKDIFVINLRGSFNDDQKDALYYDEANRIWRKLENIMHNIKEFRGNKTREYKKKDAPRLPRILPAGRDVSAFSKLMYALTMFLDGKEINDLLTTLINKFDNIQSFLKVMPLIGVN
chain 2: AKFVEEYAFFKDSAKIADELRLIKSFARMGEPIADARRAMYIDAIRILGTNLSYDELKALADTFSLDENGNKLKKGKHGMRNFIINNVISNKRFHYLIRYGDPAHLHEIAKNEAVVKFVLGRIADIQKKQGQNGKNQIDRYYETCIGKDKGKSVSEKVDALTKIITGMNYDQFDKKRSVIEDTGRENAEREKFKKIISLYLTVIYHILKNIVNINARYVIGFHCVERDAQLYKEKGYDINLKKLEEKGFSSVTKLCAGIDETAPDKRKDVEKEMAERAKESIDSLESANPKLYANYIKYSDEKKAEEFTRQINREKAKTALNAYLRNTKWNVIIREDLLRIDNKTCTLFRNKAVHLEVARYVHAYINDIAEVNSYFQLYHYIMQRIIMNERYEKSSGKVSEYFDAVNDEKKYNDRLLKLLCVPFGYCIPRFKNLSIEALFDRNEAAKFDKEKKKVSGNS
modifications: fused CID or dNS3/ANR domains
notes: RfxCas13d split pair at 507/508 fused to CID or dNS3/ANR domains
performance of reversed CID orientation versus original orientation ([8]; GIB: N ss-GAI/GID-ss C, ABA: N ss-PYL/ABI-ss C): stronger inducibility and weaker leakiness | knockdown across the various CID systems ([8]; split pairs coupled with CID domains, with inducer): consistently strong drug-induced knockdown

B6: 177/178: RfxCas13d split pair at 177/178 (protein)
chain 1: IEKKKSFAKGMGVKSTLVSGSKVYMTTFAEGSDARLEKIVEGDSIRSVNEGEAFSAEMADKNAGYKIGNAKFSHPKGYAVVANNPLYTGPVQQDMLGLKETLEKRYFGESADGNDNICIQVIHNILDIEKILAEYITNAAYAVNNISGLDKDIIGFGKFSTVYTYDEFKDPEHHRAA
chain 2: FNNNDKLINAIKAQYDEFDNFLDNPRLGYFGQAFFSKEGRNYIINYGNECYDILALLSGLRHWVVHNNEEESRISRTWLYNLDKNLDNEYISTLNYLYDRITNELTNSFSKNSAANVNYIAETLGINPAEFAEQYFRFSIMKEQKNLGFNITKLREVMLDRKDMSEIRKNHKVFDSIRTKVYTMMDFVIYRYYIEEDAKVAAANKSLPDNEKSLSEKDIFVINLRGSFNDDQKDALYYDEANRIWRKLENIMHNIKEFRGNKTREYKKKDAPRLPRILPAGRDVSAFSKLMYALTMFLDGKEINDLLTTLINKFDNIQSFLKVMPLIGVNAKFVEEYAFFKDSAKIADELRLIKSFARMGEPIADARRAMYIDAIRILGTNLSYDELKALADTFSLDENGNKLKKGKHGMRNFIINNVISNKRFHYLIRYGDPAHLHEIAKNEAVVKFVLGRIADIQKKQGQNGKNQIDRYYETCIGKDKGKSVSEKVDALTKIITGMNYDQFDKKRSVIEDTGRENAEREKFKKIISLYLTVIYHILKNIVNINARYVIGFHCVERDAQLYKEKGYDINLKKLEEKGFSSVTKLCAGIDETAPDKRKDVEKEMAERAKESIDSLESANPKLYANYIKYSDEKKAEEFTRQINREKAKTALNAYLRNTKWNVIIREDLLRIDNKTCTLFRNKAVHLEVARYVHAYINDIAEVNSYFQLYHYIMQRIIMNERYEKSSGKVSEYFDAVNDEKKYNDRLLKLLCVPFGYCIPRFKNLSIEALFDRNEAAKFDKEKKKVSGNS
knockdown with assistance of gRNA [8]: relatively efficient knockdown

B7: 384/385: RfxCas13d split pair at 384/385 (protein)
chain 1: IEKKKSFAKGMGVKSTLVSGSKVYMTTFAEGSDARLEKIVEGDSIRSVNEGEAFSAEMADKNAGYKIGNAKFSHPKGYAVVANNPLYTGPVQQDMLGLKETLEKRYFGESADGNDNICIQVIHNILDIEKILAEYITNAAYAVNNISGLDKDIIGFGKFSTVYTYDEFKDPEHHRAAFNNNDKLINAIKAQYDEFDNFLDNPRLGYFGQAFFSKEGRNYIINYGNECYDILALLSGLRHWVVHNNEEESRISRTWLYNLDKNLDNEYISTLNYLYDRITNELTNSFSKNSAANVNYIAETLGINPAEFAEQYFRFSIMKEQKNLGFNITKLREVMLDRKDMSEIRKNHKVFDSIRTKVYTMMDFVIYRYYIEEDAKVAAANKSL
chain 2: PDNEKSLSEKDIFVINLRGSFNDDQKDALYYDEANRIWRKLENIMHNIKEFRGNKTREYKKKDAPRLPRILPAGRDVSAFSKLMYALTMFLDGKEINDLLTTLINKFDNIQSFLKVMPLIGVNAKFVEEYAFFKDSAKIADELRLIKSFARMGEPIADARRAMYIDAIRILGTNLSYDELKALADTFSLDENGNKLKKGKHGMRNFIINNVISNKRFHYLIRYGDPAHLHEIAKNEAVVKFVLGRIADIQKKQGQNGKNQIDRYYETCIGKDKGKSVSEKVDALTKIITGMNYDQFDKKRSVIEDTGRENAEREKFKKIISLYLTVIYHILKNIVNINARYVIGFHCVERDAQLYKEKGYDINLKKLEEKGFSSVTKLCAGIDETAPDKRKDVEKEMAERAKESIDSLESANPKLYANYIKYSDEKKAEEFTRQINREKAKTALNAYLRNTKWNVIIREDLLRIDNKTCTLFRNKAVHLEVARYVHAYINDIAEVNSYFQLYHYIMQRIIMNERYEKSSGKVSEYFDAVNDEKKYNDRLLKLLCVPFGYCIPRFKNLSIEALFDRNEAAKFDKEKKKVSGNS
knockdown with assistance of gRNA [8]: relatively efficient knockdown
